Patent US12486284B2, “Ubiquitin-specific protease inhibitor and preparation method therefor and use thereof” (CHASER THERAPEUTICS, INC., priority 2019, dated 2025)
Like-named read-outs stand apart in the source and are kept apart here.

Tests used:
[1] = biological target: T1, USP28 (Homo sapiens, UniProt Q96RU2); test: USP28 activity measured using ubiquitin-rhodamine 110 method; type: biochemical; conditions: for IC50: purified USP28 4 nM, ubiquitin-rhodamine 110 125 nM, 30 min preincubation; for IC50(F)/IC50(E) USP28: ratio of IC50 of related 3-NH2 compound (F) to IC50 of 3-NHMe compound disclosed herein (E)
T1 construct: purchased R&D Systems
T1 sequence (Q96RU2 1-1077): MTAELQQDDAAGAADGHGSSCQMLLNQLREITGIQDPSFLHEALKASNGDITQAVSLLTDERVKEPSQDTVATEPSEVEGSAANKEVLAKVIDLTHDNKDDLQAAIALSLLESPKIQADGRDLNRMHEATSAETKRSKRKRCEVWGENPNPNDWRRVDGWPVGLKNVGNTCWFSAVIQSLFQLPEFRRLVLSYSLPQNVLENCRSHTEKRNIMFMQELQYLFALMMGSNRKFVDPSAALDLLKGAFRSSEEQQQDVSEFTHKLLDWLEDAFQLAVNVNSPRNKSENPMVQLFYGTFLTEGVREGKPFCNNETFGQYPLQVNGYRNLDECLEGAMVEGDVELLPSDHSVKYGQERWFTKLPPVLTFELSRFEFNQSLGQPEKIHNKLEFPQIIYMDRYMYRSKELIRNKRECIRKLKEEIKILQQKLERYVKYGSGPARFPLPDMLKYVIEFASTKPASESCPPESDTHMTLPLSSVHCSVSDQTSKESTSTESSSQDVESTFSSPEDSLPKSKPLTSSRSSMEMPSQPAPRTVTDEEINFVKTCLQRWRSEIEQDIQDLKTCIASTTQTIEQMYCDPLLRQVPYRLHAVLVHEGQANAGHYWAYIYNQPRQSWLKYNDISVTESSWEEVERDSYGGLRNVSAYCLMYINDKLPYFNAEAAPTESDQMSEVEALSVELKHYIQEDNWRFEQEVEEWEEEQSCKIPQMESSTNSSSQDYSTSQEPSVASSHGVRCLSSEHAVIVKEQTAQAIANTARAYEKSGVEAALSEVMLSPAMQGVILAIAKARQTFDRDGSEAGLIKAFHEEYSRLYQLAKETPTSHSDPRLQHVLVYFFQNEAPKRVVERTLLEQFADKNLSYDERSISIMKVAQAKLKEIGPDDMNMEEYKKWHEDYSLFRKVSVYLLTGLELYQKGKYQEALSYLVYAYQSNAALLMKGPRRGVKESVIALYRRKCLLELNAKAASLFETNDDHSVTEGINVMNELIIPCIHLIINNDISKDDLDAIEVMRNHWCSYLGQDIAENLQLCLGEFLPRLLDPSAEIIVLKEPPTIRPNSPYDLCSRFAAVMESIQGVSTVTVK
Experimental: USP28 activity was measured using ubiquitin-rhodamine 110 method.
(§1) Purified USP28 and the ubiquitin-rhodamine 110 substrate used for measuring DUBs activity were both from R&D Systems. Test compounds were first dissolved in DMSO to prepare a 10 mM stock solution, and then the stock solution was diluted with a buffer solution [containing 20 mM Tris-HCl (pH 8.0), 2 mM CaCl2), 3 mM BME, 0.01% Prionix, 0.01% Triton X-100] to the desired concentration (with DMSO content less than or equal to 0.5%). The dilution was mixed well with USP28 (final concentration 4 nM) in a 96-well plate and incubated at room temperature for 30 min, and then added with the substrate (ubiquitin-rhodamine 110) to 125 nM. The final volume of the whole reaction system was 20 μL. The released fluorescence (excitation wavelength 485 nm, emission wavelength 535 nm) was detected immediately on a microplate reader after the addition of the substrate. The inhibitory rate of the test compound against USP28 was calculated according to the following formula: Inhibition %=1−[(test compound+fluorescence value of substrate−fluorescence value of test compound (no substrate))/mean fluorescence value of DMSO control group−fluorescence value of test compound (no substrate)]
According to the inhibitory rates of the test compound against USP28 under different concentrations, IC50 was calculated.

[2] = biological target: T2, USP25 (Homo sapiens, UniProt Q9UHP3); test: USP25 activity measured using ubiquitin-rhodamine 110 method; type: biochemical; conditions: for IC50: purified USP25 15 nM, ubiquitin-rhodamine 110 125 nM, 30 min preincubation; for IC50(F)/IC50(E) USP25: ratio of IC50 of related 3-NH2 compound (F) to IC50 of 3-NHMe compound disclosed herein (E)
T2 construct: purchased R&D Systems
T2 sequence (Q9UHP3 1-1055): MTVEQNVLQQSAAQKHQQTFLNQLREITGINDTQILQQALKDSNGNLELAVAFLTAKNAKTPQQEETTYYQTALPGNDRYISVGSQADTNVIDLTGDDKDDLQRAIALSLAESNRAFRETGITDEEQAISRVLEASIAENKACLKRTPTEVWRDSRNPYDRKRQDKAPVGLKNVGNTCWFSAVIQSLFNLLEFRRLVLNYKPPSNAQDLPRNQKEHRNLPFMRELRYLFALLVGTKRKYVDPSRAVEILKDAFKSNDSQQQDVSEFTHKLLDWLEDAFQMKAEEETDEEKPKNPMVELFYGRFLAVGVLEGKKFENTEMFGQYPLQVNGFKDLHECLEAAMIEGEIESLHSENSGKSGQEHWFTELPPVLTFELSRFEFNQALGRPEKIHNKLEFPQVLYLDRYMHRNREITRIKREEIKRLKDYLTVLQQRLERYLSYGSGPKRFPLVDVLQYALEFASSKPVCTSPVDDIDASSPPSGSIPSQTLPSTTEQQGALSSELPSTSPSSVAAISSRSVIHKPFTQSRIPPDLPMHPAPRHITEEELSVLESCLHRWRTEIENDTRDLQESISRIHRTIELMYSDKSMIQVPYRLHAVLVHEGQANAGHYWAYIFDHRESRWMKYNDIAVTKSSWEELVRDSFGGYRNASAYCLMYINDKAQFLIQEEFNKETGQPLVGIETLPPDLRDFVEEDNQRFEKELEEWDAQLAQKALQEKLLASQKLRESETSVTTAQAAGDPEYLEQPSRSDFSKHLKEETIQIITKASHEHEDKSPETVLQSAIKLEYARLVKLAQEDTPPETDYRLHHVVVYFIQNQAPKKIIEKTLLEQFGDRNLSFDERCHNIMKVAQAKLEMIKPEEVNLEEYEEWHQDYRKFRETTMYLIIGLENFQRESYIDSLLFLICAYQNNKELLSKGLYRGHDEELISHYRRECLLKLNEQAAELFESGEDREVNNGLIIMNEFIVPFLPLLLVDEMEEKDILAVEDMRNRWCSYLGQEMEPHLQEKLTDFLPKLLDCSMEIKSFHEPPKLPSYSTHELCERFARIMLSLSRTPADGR
Experimental: USP25 activity was measured using ubiquitin-rhodamine 110 method.
as §1, with “Purified USP25” for “Purified USP28”, “with USP25” for “with USP28”, “concentration 15” for “concentration 4”, “the substrate, and the” for “the substrate. The”, “against USP25” for “against USP28”
As in Example 11, according to the inhibitory rates of the test compound against USP25 under different concentrations, IC50 was calculated.

[3] = Inhibitory activity against USP28 (IC50)
[4] = read-out: Inhibitory activity against USP25 (IC50)
[5] = read-out: Inhibitory activity against USP28 (IC50)
[6] = Inhibitory activity against USP25 (IC50)

| Compound | IC50 [1, 3] [µM] | IC50 [2, 4] [µM] | IC50 [1, 5] [µM] | IC50 [2, 6] [µM] | IC50(F)/IC50(E) USP28 [1] | IC50(F)/IC50(E) USP25 [2] |
| --- | --- | --- | --- | --- | --- | --- |
| CNc1c(C(=O)NCCc2cc(F)c(N3C[C@H]4CC[C@@H](C3)N4)c(Cl)c2)sc2nc(C)ccc12 [Compound I-44] | < 0.1 | > 10 |  |  |  |  |
| CNc1c(C(=O)NCCc2ccc(N3C[C@H]4CC[C@@H](C3)N4)cc2)sc2nc(N)ccc12 [Compound I-93, N-4-(3,8-diazabicyclo[3.2.1]octan-3-yl)phenethyl-6-amino-3-methylaminothiophene[2,3-b]pyridine-2-carboxamide] |  | 0.1 to 1 | 0.1 to 1 |  |  |  |
| CNc1c(C(=O)NCCc2ccc(N3C[C@H]4CC[C@@H](C3)N4)c(OC)c2)sc2nc(C)ccc12 [Compound I-36] | < 0.1 |  |  | < 0.1 |  |  |
| CNc1c(C(=O)NCCc2ccc(N3CCNCC3)cc2)sc2nc(C)ccc12 [Compound I-2] |  | 0.1 to 1 | 0.1 to 1 |  |  |  |
| CNc1c(C(=O)NCCc2ccc(C3CCNCC3)cc2)sc2nc(C)ccc12 [Compound I-3] |  | 0.1 to 1 | < 0.1 |  |  |  |
| CNc1c(C(=O)NCCc2ccc(N3C[C@H]4CC[C@@H](C3)N4)cc2)sc2nccc(C)c12 [Compound I-20] |  | 0.1 to 1 | 0.1 to 1 |  |  |  |
| CNc1c(C(=O)NCCc2c[nH]c3ccccc23)sc2nc(C)ccc12 [Compound I-49] |  | 1 to 5 | < 0.1 |  | 5.0 | >7 |
| CNc1c(C(=O)NCCc2ccc(N3C[C@H]4CC[C@@H](C3)N4)cc2)sc2nc(OC)ccc12 [Compound I-17] |  | 0.1 to 1 | 0.1 to 1 |  |  |  |
| CNc1c(C(=O)NCCc2cc(F)c(N3C[C@H]4CC[C@@H](C3)N4)cc2F)sc2nc(C)ccc12 [Compound I-42] | < 0.1 | > 10 |  |  |  |  |
| CNc1c(C(=O)NCCc2ccc(N3C[C@H]4CC[C@@H](C3)N4)cc2)sc2ncc(F)cc12 [Compound I-18] |  | > 10 | 0.1 to 1 |  |  |  |
| CCc1nc2sc(C(=O)NCCc3ccc(N4C[C@H]5CC[C@@H](C4)N5)cc3)c(NC)c2nc1C [Compound I-74] | < 0.1 |  |  | < 0.1 |  |  |
| CNc1c(C(=O)NC2COc3cc(N4CC5CCC(C4)N5)ccc3C2)sc2nc(C)cnc12 (single isomer, unassigned) [Compound I-87] | < 0.1 | 0.1 to 1 |  |  |  |  |
| CNc1c(C(=O)N[C@H]2COc3cc(N4CC5CCC(C4)N5)ccc3C2)sc2nc(C)ccc12 [Compound I-85] | < 0.1 |  |  | < 0.1 | 8.8 | >8 |
| CCc1cnc2c(NC)c(C(=O)NCCc3ccc(N4C[C@H]5CC[C@@H](C4)N5)cc3)sc2n1 [Compound I-72] | < 0.1 | 0.1 to 1 |  |  |  |  |
| CNc1c(C(=O)NCCc2ccc(N3C[C@H]4CC[C@@H](C3)N4)cc2)sc2nc(C(C)C)ccc12 [Compound I-12] | < 0.1 | 5 to 10 |  |  |  |  |
| CCCNc1c(C(=O)NCCc2ccc(N3C[C@H]4CC[C@@H](C3)N4)cc2)sc2nc(C)ccc12 [Compound I-24] |  | > 10 | 0.1 to 1 |  |  |  |
| CNc1c(C(=O)NC2COc3cc(N4CC5CCC(C4)N5)ccc3C2)sc2nc(C)cnc12 (single isomer, unassigned) [Compound I-88] |  | 1 to 5 | 1 to 5 |  |  |  |
| CNc1c(C(=O)NCCc2csc3ccccc23)sc2nc(C)ccc12 [Compound I-57] |  | 5 to 10 | < 0.1 |  |  |  |
| CNc1c(C(=O)NCCc2ccc(N3C[C@H]4CC[C@@H](C3)N4)c(F)c2)sc2nc(C)cnc12 [Compound I-76] | < 0.1 |  |  | < 0.1 | 33.3 | >20 |
| CCc1nc2sc(C(=O)NCCc3ccc(N4C[C@H]5CC[C@@H](C4)N5)cc3)c(NC)c2c(C(F)(F)F)c1C [Compound I-32] | < 0.1 | 5 to 10 |  |  |  |  |
| CNc1c(C(=O)NCCc2ccc(N3CC4CC3CN4)cc2)sc2nc(C)ccc12 (stereo not drawn) [Compound I-8] |  | < 0.1 | < 0.1 |  |  |  |
| CNc1c(C(=O)NCCc2c[nH]c3ccccc23)sc2nc(C)cc(C)c12 [Compound I-53] |  | > 10 | 0.1 to 1 |  |  |  |
| CNc1c(C(=O)N[C@H](COC)Cc2c[nH]c3ccccc23)sc2nc(C)ccc12 [Compound I-55] |  | > 10 | 1 to 5 |  |  |  |
| CNc1c(C(=O)NCCc2ccc(N3C[C@H]4CC[C@@H](C3)N4)cc2)sc2nc(C)cc(C)c12 [Compound I-26] |  | 5 to 10 | 0.1 to 1 |  |  |  |
| CNc1c(C(=O)NCCc2ccc(N3C[C@H]4CC[C@@H](C3)N4)cc2)sc2nc(C(F)(F)F)ccc12 [Compound I-16] |  | 1 to 5 | 0.1 to 1 |  |  |  |
| CNc1c(C(=O)NCCc2ccc(N3C[C@H]4CC[C@@H](C3)N4)cc2)sc2ncccc12 [Compound I-9] | < 0.1 | 0.1 to 1 |  |  | 9.2 | >10 |
